Laboratory results reported in patent publication US10328092B2, “Methods and compositions for treatment of drug addiction” (The Royal Institution for the Advancement of Learning / …, priority 2015, dated 2019).

Experiments:
TNFα mRNA = type: in vivo, mouse
Protocol: For tissue, total RNA from the ventral striatum was extracted and isolated by RNAqueous-4PCR total RNA isolation kit (Ambion, AM1914), according to manufacturer's instructions. For microglia and astrocyte cultures, total RNA was isolated by RNeasy kit (Qiagen, 74136). For all sample types, 0.5 μg of total RNA was used for cDNA synthesis with Quantitect Reverse Transcription Kit (Qiagen, 205313), and quantitative RT-PCR was performed with Fast SYBR-Green Master Mix (Applied Biosystems) detected by StepOne Plus RealTime PCR system (Applied Biosystems). The sequences of qPCR primers used for mRNA quantification in this study were obtained from Integrated DNA Technologies, and are as follows: mouse TNFα forward, […] (SEQ ID NO: 1) [200 nM]; mouse TNFα reverse, […] (SEQ ID NO: 2) [200 nM]; mouse GAPDH forward, […] (SEQ ID NO: 3) [300 nM]; mouse GAPDH reverse, […] (SEQ ID NO: 4) [300 nM]; rat TNFα forward, […] (SEQ ID NO: 1) [600 nM]; rat TNFα reverse, […] […] After 40 cycles, the Ct values were determined. To normalize the samples, ΔCt between TNFα and GADPH or cyclophilin Ct values was calculated. The x-fold difference in expression between the different treatments was then determined by subtraction of the ΔCt values and termed ΔΔCt. Finally, the total change was calculated as 2-ΔΔct and the relative amount compared with control samples was deducted.

mice = test: Stereotypic responses to cocaine (pausing, turning, velocity); type: in vivo, mouse; conditions: MPLA 10 μg or 50 μg, response to cocaine
Protocol: Locomotion was monitored in 30×30 cm plexiglass boxes by the EthoVision video-tracking system (Noldus) and performed near the end of the light phase of the light-dark cycle under dim red light. After habituating animals to handling, mice received IP injections of saline or cocaine and their activity was recorded for 15 min. Mice were tested during habituation to injection and the activity boxes (saline; days 1-2) and 5 repeated cocaine injections (15 mg/kg; days 3-7). Following 10 days without injections (withdrawal), mice receive a challenge dose of cocaine (15 mg/kg) and locomotor activity again assessed (day 17). Total distance traveled and stereotypy were evaluated from video by EthoVision. For stereotypy, the frequency of which the mouse stops moving (#pauses/min) was measured using a threshold start velocity of 2.00/second and a threshold stop velocity of 0 cm/s. The number of turns per minute (# turns/min) was measured by calculating the frequency for which the path of the mouse turns over a minimum distance of 3.00 cm. Velocity was assessed as the mean distance traveled (cm) over time (s).

[1] = Sickness behavior in vivo

Compound	increase of TNFα mRNA in microglia cells (TNFα mRNA; 5 daily injections of cocaine, striatum CD11b+ fraction)	decrease in TNFα mRNA in non-microglial cells (TNFα mRNA; five daily cocaine treatments, other striatal cell types)	mean velocity (mice)	pausing (mice)	turning behaviour (mice)	sickness behavior [1]
COC(=O)[C@H]1[C@@H](OC(=O)c2ccccc2)C[C@@H]2CC[C@H]1N2C [cocaine]	~2.5 fold	3.26±0.21 fold	–	–	–	–
monophosphoryl lipid A [MPLA]	–	–	significant decreases	slight increase	significant decreases	without inducing sickness behavior
